# Source: PMC10541190 (The Journal of Clinical Investigation, 2023)
# Where “and” joins values, the source holds several entries; their conditions need not be identical. Identical values can stand only once.
# Legend:
# [1] = system: BLK; settings: cited from earlier work
# [2] = system: JAK; settings: cited from earlier work
# [3] = system: SARS-CoV-2 (USA-WA1/2020); test: microbe, parasite or virus in culture; assay type: cell-based; settings: Severe acute respiratory syndrome coronavirus 2, Calu-3, read-out: EC50, SARS-CoV-2 infection
# [4] = system: ErbB3; settings: cited from earlier work
# [5] = system: SRMS; settings: cited from earlier work
# [6] = system: ErbB1; settings: cited from earlier work
# [7] = system: VEEV (TC-83); test: microbe, parasite or virus in culture; assay type: cell-based; settings: Venezuelan equine encephalitis virus, U-87 MG, read-out: EC50, VEEV (TC-83) infection
# [8] = in vitro; settings: human
# [9] = system: ErbB2; settings: cited from earlier work
# [10] = in vitro; settings: human; remark: listed apart in the source
# [11] = system: ErbB4; settings: cited from earlier work
# [12] = system: ErbB1 (EGFR); settings: read-out: KD of binding or IC50 (nM), ErbB1; cited from earlier work
# [13] = system: MAP2K5; settings: cited from earlier work
# [14] = system: BTK; settings: cited from earlier work
# [15] = target: T1, ErbB4 (Homo sapiens, UniProt Q15303); test: biochemical; settings: read-out: ErbB4 activity (%)
# T1 sequence (Q15303 26-1308): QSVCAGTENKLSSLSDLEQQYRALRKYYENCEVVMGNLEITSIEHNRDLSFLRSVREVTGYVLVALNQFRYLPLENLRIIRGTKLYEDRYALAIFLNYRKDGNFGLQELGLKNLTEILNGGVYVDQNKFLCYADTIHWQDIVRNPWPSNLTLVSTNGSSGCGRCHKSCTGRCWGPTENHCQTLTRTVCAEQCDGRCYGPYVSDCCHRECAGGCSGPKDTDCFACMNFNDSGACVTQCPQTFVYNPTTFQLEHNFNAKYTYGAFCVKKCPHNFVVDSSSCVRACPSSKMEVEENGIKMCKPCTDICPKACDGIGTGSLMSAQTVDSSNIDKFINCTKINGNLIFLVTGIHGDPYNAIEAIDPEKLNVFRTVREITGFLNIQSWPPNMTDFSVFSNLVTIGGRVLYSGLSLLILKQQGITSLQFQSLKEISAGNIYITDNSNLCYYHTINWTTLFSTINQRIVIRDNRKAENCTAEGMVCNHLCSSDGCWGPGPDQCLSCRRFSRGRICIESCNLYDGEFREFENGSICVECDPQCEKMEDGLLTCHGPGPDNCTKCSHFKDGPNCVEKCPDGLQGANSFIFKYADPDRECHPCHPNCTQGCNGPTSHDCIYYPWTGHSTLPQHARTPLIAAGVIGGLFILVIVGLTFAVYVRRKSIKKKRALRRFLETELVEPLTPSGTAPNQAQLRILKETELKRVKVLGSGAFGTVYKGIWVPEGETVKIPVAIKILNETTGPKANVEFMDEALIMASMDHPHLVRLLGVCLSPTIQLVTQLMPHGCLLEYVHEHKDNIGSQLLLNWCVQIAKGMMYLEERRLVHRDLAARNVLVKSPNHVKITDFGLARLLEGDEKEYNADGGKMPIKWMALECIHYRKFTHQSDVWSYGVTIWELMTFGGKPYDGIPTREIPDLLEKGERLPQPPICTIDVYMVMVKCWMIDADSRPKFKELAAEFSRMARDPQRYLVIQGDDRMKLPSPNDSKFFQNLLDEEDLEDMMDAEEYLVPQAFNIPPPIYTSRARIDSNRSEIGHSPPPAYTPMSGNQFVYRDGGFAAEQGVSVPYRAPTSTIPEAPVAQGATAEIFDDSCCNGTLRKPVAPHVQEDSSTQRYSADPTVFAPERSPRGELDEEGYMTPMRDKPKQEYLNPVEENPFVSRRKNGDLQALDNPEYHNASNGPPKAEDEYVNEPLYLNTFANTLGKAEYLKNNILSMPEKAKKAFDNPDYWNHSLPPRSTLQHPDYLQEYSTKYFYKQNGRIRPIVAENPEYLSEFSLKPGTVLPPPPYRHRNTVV
# [16] = target: T1, ErbB4; settings: read-out: KD of binding or IC50 (nM), ErbB4; cited from earlier work
structure (smiles),measurement,setting,value
C=CC(=O)N1CCC[C@@H](n2nc(-c3ccc(Oc4ccccc4)cc3)c3c(N)ncnc32)C1 [Ibrutinib],Other targets: BLK (% of control),[1],"JAK (0%), BTK (0%), SRMS (0%), BLK (0.1%), ErbB3 (0.1%), MAP2K5 (0.2%)"
same,Other targets: JAK (% of control),[2],"JAK (0%), BTK (0%), SRMS (0%), BLK (0.1%), ErbB3 (0.1%), MAP2K5 (0.2%)"
same,EC50,[3],800 nM
same,Other targets: ErbB3 (% of control),[4],"JAK (0%), BTK (0%), SRMS (0%), BLK (0.1%), ErbB3 (0.1%), MAP2K5 (0.2%)"
same,Other targets: SRMS (% of control),[5],"JAK (0%), BTK (0%), SRMS (0%), BLK (0.1%), ErbB3 (0.1%), MAP2K5 (0.2%)"
same,"% of control, ErbB1",[6],1.8 nM 1.8%
same,EC50,[7],500 nM
same,CC50,[8],> 20000 nM
same,"% of control, ErbB2",[9],12.1 nM 0%
same,CC50,[10],> 20000 nM
same,"% of control, ErbB4",[11],1.0 nM 0%
same,IC50,[12],1.8 nM
same,Other targets: MAP2K5 (% of control),[13],"JAK (0%), BTK (0%), SRMS (0%), BLK (0.1%), ErbB3 (0.1%), MAP2K5 (0.2%)"
same,Other targets: BTK (% of control),[14],"JAK (0%), BTK (0%), SRMS (0%), BLK (0.1%), ErbB3 (0.1%), MAP2K5 (0.2%)"
CNC(=O)CN1CCC(Oc2cc3c(Nc4cccc(Cl)c4F)ncnc3cc2OC)CC1 [Sapitinib],activity at 0.00305 µM,[15],37.7%
same,activity at 0.0274 µM,[15],10.2%
same,activity at 0.08 µM,[15],5.52%
same,activity at 0.25 µM,[15],2.84%
same,activity at 0.74 µM,[15],1.25%
same,activity at 2.22 µM,[15],2.36%
same,activity at 6.67 µM,[15],1.4%
same,activity at 20 µM,[15],1.27%
same,activity at 60 µM,[15],0%
same,activity at […],[15],18.7% and 54.8%
same,EC50,[3],1800 nM
same,IC50,[16],1.4 nM
same,EC50,[7],2600 nM
same,CC50,[8],> 20000 nM
same,CC50,[10],> 20000 nM
same,viability,[10]; Calu-3 viability (%),82.2%
same,IC50,[12],12 nM
